ChEMBL document CHEMBL1201862, “PubChem BioAssay data set” (2004)
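In this assay, cells in 96-well plates receive the compound at five concentrations for 48 hours. Endpoints are linearly interpolated between the surrounding concentrations. GI50: concentration for 50% inhibition of growth.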 Active and inactive are the calls of the source. No stated cut-off is given here; in the data, active = GI50 up to about 1.1 µM and inactive = higher.

Key:
Assay in all cases: growth of human tumour cells (NCI), 48 h
[1] = system: MDA-MB-231
[2] = system: TK-10
[3] = system: OVCAR-3
[4] = system: M14
[5] = system: UO-31
[6] = system: SNB-75
[7] = system: DU-145
[8] = system: MDA-N
[9] = system: KM12
[10] = system: SK-MEL-28
[11] = system: OVCAR-4
[12] = system: COLO 205
[13] = system: HOP-92
[14] = system: CAKI-1
[15] = system: HOP-62
[16] = system: SF-539
[17] = system: BT-549
[18] = system: Hs-578T
[19] = system: SF-268

Measured: GI50

CCCCNC(=S)N/C=C1\C(=O)Oc2ccccc2C1=O
inactive: [1] 73.8 µM | [2] > 100 µM | [3] > 100 µM | [4] 76.6 µM | [5] 37.2 µM | [6] 2.69 µM | [7] 99.3 µM | [8] 64 µM | [9] > 100 µM | [10] 77.8 µM | [11] 74.5 µM | [12] > 100 µM | [13] > 100 µM | [14] 26.1 µM | [15] 80.2 µM | [16] 98.4 µM

CCOC(=O)c1sc2nc(SC)nc(Nc3ccc4c(c3)OCO4)c2c1N
inactive: [1] 26 µM | [2] 30.9 µM | [3] 37.4 µM | [4] 41.9 µM | [5] 71.3 µM | [17] 33.7 µM | [7] 35.8 µM | [8] > 100 µM | [9] > 100 µM | [10] 1.91 µM | [11] 37.7 µM | [12] > 100 µM | [13] 17.4 µM | [14] > 100 µM | [15] 28.8 µM | [16] 32.9 µM

[BH3-][P+]1(CC[P@@+]([BH3-])(c2ccccc2)c2ccccc2OC)[C@@H](C)[C@@H](O)[C@H](O)[C@@H]1C (some centres undefined)
inactive: [1] 16 µM | [2] 17.8 µM | [3] 16.1 µM | [4] 16.7 µM | [5] 10.1 µM | [6] 14.8 µM | [7] 17.3 µM | [8] 16 µM | [9] 15.8 µM | [10] 17.9 µM | [11] 16.8 µM | [18] 10.3 µM | [12] 17.8 µM | [19] 17.2 µM | [13] 16.6 µM | [14] 15.6 µM | [15] 16.9 µM | [16] 16.5 µM

CN1C(=O)c2c(c3c4ccccc4n(C)c3c3c2c2ccccc2n3C)C1=O
inactive: [1] > 100 µM | [2] > 100 µM | [3] 58.6 µM | [4] > 100 µM | [5] > 100 µM | [6] > 100 µM | [17] > 100 µM | [7] > 100 µM | [8] > 100 µM | [9] > 100 µM | [10] > 100 µM | [11] > 100 µM | [12] > 100 µM | [13] > 100 µM | [14] > 100 µM | [15] > 100 µM | [16] > 100 µM

Clc1cccc(-c2nc3cccc4c3n2Cc2ncccc2-4)c1
inactive: [1] 94.2 µM | [2] 42.2 µM | [3] 32.1 µM | [4] > 100 µM | [6] 9.04 µM | [17] > 100 µM | [7] > 100 µM | [8] > 100 µM | [9] > 100 µM | [10] > 100 µM | [11] 36 µM | [12] > 100 µM | [19] 32.8 µM | [13] 44.6 µM | [14] 8.02 µM | [15] 36.1 µM | [16] 41.8 µM

COc1cc2c[n+]3c4c(c2c(OC)c1OC)CCCC4CC3 (centres undefined)
inactive: [1] > 100 µM | [3] 66.5 µM | [4] > 100 µM | [5] > 100 µM | [7] > 100 µM | [8] > 100 µM | [9] 30.1 µM | [10] > 100 µM | [11] > 100 µM | [18] 9.2 µM | [12] > 100 µM | [13] > 100 µM | [14] > 100 µM | [15] > 100 µM

COc1cc(O)c2c(c1)OCC(Cc1ccc(O)cc1)C2=O (centres undefined)
inactive: [1] > 100 µM | [2] > 100 µM | [3] 60.4 µM | [4] > 100 µM | [5] > 100 µM | [6] 74.3 µM | [7] > 100 µM | [8] > 100 µM | [9] > 100 µM | [10] > 100 µM | [11] 86.3 µM | [18] 45.7 µM | [12] > 100 µM | [19] 80.5 µM | [13] 37.9 µM | [14] 68.5 µM | [15] > 100 µM | [16] > 100 µM

ClCc1c(-c2ccccc2)nn(-c2ccccc2)c1CCl
inactive: [1] > 10 µM | [2] 14.6 µM | [3] 13.5 µM | [4] 15.4 µM | [5] 20.1 µM | [6] 4.18 µM | [17] > 10 µM | [7] 14 µM | [8] 10.7 µM | [9] 13.2 µM | [10] 15.6 µM | [11] 1.65 µM | [12] 5.94 µM | [19] 16.6 µM | [13] 2.81 µM | [14] 1.83 µM | [16] 16.1 µM

O=C1Oc2ccccc2C(=O)/C1=C/NC(=S)NCc1ccccc1
inactive: [1] 71 µM | [2] 6.34 µM | [3] > 100 µM | [4] 75 µM | [5] 16.2 µM | [6] 16.9 µM | [17] 5.09 µM | [7] 93.1 µM | [8] 50.5 µM | [9] 51.6 µM | [10] > 100 µM | [11] 73.8 µM | [12] > 100 µM | [13] > 100 µM | [14] 21 µM | [15] 57.9 µM | [16] 43.9 µM

Cn1c(=O)c2nc[nH]c2n(C)c1=O [THEOPHYLLINE]
inactive: [1] > 100 µM | [2] > 100 µM | [3] > 100 µM | [4] > 100 µM | [5] > 100 µM | [7] > 100 µM | [8] > 100 µM | [9] > 100 µM | [10] > 100 µM | [18] > 100 µM | [12] > 100 µM | [13] > 100 µM | [14] 22.9 µM | [15] > 100 µM

Cc1nc(O)nc(N(CCO)/N=C/c2ccc(Cl)cc2)c1C(=O)Nc1ccc(Cl)cc1
inactive: [1] 36.7 µM | [2] 85.3 µM | [3] > 100 µM | [4] 87.3 µM | [5] > 100 µM | [6] 55.2 µM | [7] > 100 µM | [8] > 100 µM | [9] > 100 µM | [10] > 100 µM | [11] > 100 µM | [18] 32.5 µM | [12] > 100 µM | [19] 89.7 µM | [13] > 100 µM | [14] > 100 µM | [15] 59.7 µM | [16] > 100 µM

COC1=CC(=O)C(O)=C(C[C@@]2(C)[C@@H]3CCC[C@H](COC(=O)CCCCCNC(=O)OC(C)(C)C)[C@@]3(C)CC[C@@H]2C)C1=O
inactive: [1] > 10 µM | [2] > 10 µM | [3] 5.92 µM | [4] 6.56 µM | [5] 6.47 µM | [6] 5.11 µM | [7] > 10 µM | [8] > 10 µM | [9] > 10 µM | [10] 8.63 µM | [11] > 10 µM | [18] 4.52 µM | [12] 4.08 µM | [19] 5.85 µM | [13] 3.9 µM | [14] 4.61 µM | [15] 5.08 µM
